Measured values as given in patent publication US20070274951A1, “Combinations comprising HCV protease inhibitor(s) and HCV polymerase inhibitor(s), and methods of treatment related thereto” (priority 2006, published 2007).
Where two headings read alike, the source gives them in different places.

Tested on: HCV replicon RNA in replicon cells
Experiment: Replicon RNA response to antiviral agent(s), real time PCR (Taqman assay)
Type: cell-based
Settings: Hepatitis C virus, read-out: Inhibitor IC50 in replicon cells
Procedure: Replicon RNA response to antiviral agent(s) was examined using the HCV protease inhibitor Formula Ia alone or in combination with HCV NS5B polymerase inhibitors 2′-methyl-adenosine, benzothiadiazine, indole-N-acetamide, or NM 107. Likewise, replicon RNA response to antiviral agent(s) was examined using the HCV protease inhibitor SCH 446211 (SCH 6) alone or in combination with HCV polymerase inhibitor ribavirin.
In brief, replicon cells were seeded at 4000 cells/well in 96-well collagen 1-coated Biocoat plates (Becton Dickinson). At 24 hrs post-seeding, replicon cells were treated with the requisite anti-viral agent(s). The final concentration of DMSO was 0.5%, fetal bovine serum was 5%, and G418 (an aminoglycoside used as a selective agent) was 500 μg/ml. Media and anti-viral agent(s) were refreshed daily for 3 days, at which point the cells were washed with PBS and lysed in 1× cell lysis buffer (Ambion cat #8721). The replicon RNA level was measured using real time PCR (Taqman assay). The ampicon was located in NS5B. […] (SEQ ID NO: 2); the probe sequence was FAM-labeled […] (SEQ ID NO: 3). GAPDH RNA was used as endogenous control and was amplified in the same reaction as NS5B (multiplex PCR) using primers and VIC-labeled probe recommended by the manufacture (PE Applied Biosystem). The real-time RT-PCR reactions were run on ABI PRISM 7900HT Sequence Detection System using the following program: 48° C. for 30 min, 95° C. for 10 min, 40 cycles of 95° C. for 15 sec, 60° C. for 1 min. The ΔCT values (CT5B−CTGAPDH) were plotted against drug concentration and fitted to the sigmoid dose response model using SAS (SAS Institute Inc.) or Graphpad PRISM software (Graphpad Software Inc.). The IC50 is the drug dose necessary to achieve ΔCT=1 over the projected baseline. […] Alternatively, to quantitate the absolute amount replicon RNA, a standard curve was established by including serially diluted T7 transcripts of replicon RNA in the Taqman assay. All Taqman reagents were from PE Applied Biosystem. […]

CC(C)(C)NC(=O)N[C@H](C(=O)N1CC2C([C@H]1C(=O)NC(CC1CCC1)C(=O)C(N)=O)C2(C)C)C(C)(C)C (stereo partly drawn) [Formula Ia]
IC50 (cells selected by: Formula Ia + 2′-methyl-adenosine): 3500 nM | IC50 (cells selected by: Formula Ia + Indole-N-acetamide): 2400 nM | IC50 (cells selected by: No treatment): 300 nM
